Reference: patent US12139729B2, “Neurodegenerative disorders” (priority 2013, dated 2024)
Like-named read-outs stand apart in the source and are kept apart here. No end group written: not given here.

Legend:
[1] = biological target: T1, α7nAChR (the α7 nicotinic acetylcholine receptor), allosteric site (Rattus norvegicus, UniProt Q05941); experiment: [3H] Ivermectin binding assay on PC12 cell membranes
T1 construct: [3H]; host or cells: wild-type PC12 cells
Protocol: PC12 membranes where obtained to perform binding assays. PC12 cells were grown until confluence on 100 mm plates. Growth medium was removed and ice-cold 50 mM Tris-HCl buffer (pH 7.4) containing 4.5 μg/μ1 aprotinin and 0.1 mM phenylmethylsulphonylfluoride (PMSF) were added. Cells were mechanically detached and pelleted by centrifugation (1040×g) for 4 minutes at 4° C. Pellets were homogenized with a Polytron and centrifuged (13000×g) for 20 minutes at 4° C. The pellets were resuspended in fresh buffer and incubated at 37° C. for 10 minutes to remove endogenous neurotransmitters. The samples were subsequently re-centrifuged. The final pellet was resuspended in buffer and the protein concentration determined using the Bradford Reagent (Sigma-Aldrich, St. Louis, MO). The cell membrane preparation was stored at −80° C.
For the binding with PC12 membranes, each incubation was performed in polystyrene tube (VWR International Ltd; Leicestershire, UK) containing 0.25 ml of membranes diluted in Tris-HCl 50 mM buffer (containing 50 μg of PC12 membranes) with 5 nM [3H] […] Thereafter, samples were filtered through Brandel GB glass fibre filters (MD, USA); pre-soaked in 0.5% polyethylenemine by a Harvester (Brandel; MD, USA). Tubes were washed 3 times with ice cold 50 mM Tris-HCl buffer. Radioactivity in the tubes was counted by scintillation spectrometry using a 300 SL Liquid scintillation counter (Lablogic Systems Limited, UK). Specific binding was determined by subtracting the non-specific (cells treated with Ivermectin 30 μM) value to all the tubes.

PC12 cells = experiment: Sulforhodamine B (SRB) cell viability assay; type: cell-based
Protocol: (§1) Wild-type PC12 cell were provided by Sigma-Aldrich (St. Louis, MO). The culture was routinely plated in 100 mm dishes (Corning) coated with collagen (2 μg/cm^2) and maintained in growth medium with Minimum Essential Medium Eagle (MEM) supplemented with heat-inactivated 10% horse serum (HS) and 5% foetal bovine serum (FBS), 10 mM HEPES, 2 mM L-Glutamine and 1:400 Penicillin/streptomycin solution. Cells were maintained at 37° C. in a humidified atmosphere 5% CO2 and the medium was replaced every 2 days. For splitting, cells were dislodged from the dish using a pipette with medium, with a portion of these replated onto new cultured dishes. Cells were used between passages 12 and 25.
(§2) The cell viability assay used was the sulforhodamine B (SRB) colorimetric assay for toxicity screening. The day before of the experiment cells were seeded onto collagen-coated 96-well plates in a concentration of 40,000 cells/well. Cell concentration was determined by the Fuchs-Rosenthal chamber. […] After treatment, medium was replaced and cells were fixed by adding 100 μl of 10% Trichloroacetic Acid (TCA) for 1 h at 4° C. Thereafter, cells were washed with H2O and stained with 100 μl of a 0.057% SRB solution in 1% Acetic acid (HAc) for 30 minutes at room temperature. After staining cells were washed with 1% HAc for removing the excess of SRB and then incubated with 200 μl of 10 mM Tris base (pH 10.5) and shake it for 5 minutes to solubilise the protein-bound dye. Measurement of the absorbance took place in a VMax Kinetic Microplate Reader (Molecular Devices) at 490 nm.

[2] = biological target: allosteric site on the α7 nicotinic-receptor (Rattus norvegicus, UniProt Q05941); experiment: Binding affinity for the allosteric site of the α7 nicotinic-receptor, using tests for viability
[3] = cited from earlier work
[4] = Sulforhodamine B (SRB) cell viability assay; type: cell-based; conditions: 10 μM, 1 hour, PC12; read-out: cell viability, peptide alone
Protocol: as §1, §2

T1 sequence (Q05941 23-502): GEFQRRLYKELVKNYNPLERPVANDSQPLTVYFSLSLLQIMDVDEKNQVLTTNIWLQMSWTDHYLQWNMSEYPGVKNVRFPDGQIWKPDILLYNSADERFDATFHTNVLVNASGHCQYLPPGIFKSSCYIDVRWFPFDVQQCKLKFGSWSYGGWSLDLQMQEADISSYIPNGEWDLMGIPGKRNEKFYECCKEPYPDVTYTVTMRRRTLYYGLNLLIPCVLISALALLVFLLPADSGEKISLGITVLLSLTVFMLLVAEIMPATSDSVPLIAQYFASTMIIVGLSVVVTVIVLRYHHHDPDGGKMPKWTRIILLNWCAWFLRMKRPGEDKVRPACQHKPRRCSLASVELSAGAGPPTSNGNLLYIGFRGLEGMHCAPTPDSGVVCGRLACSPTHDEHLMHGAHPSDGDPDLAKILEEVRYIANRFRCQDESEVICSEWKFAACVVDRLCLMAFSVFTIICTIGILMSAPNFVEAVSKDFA
allosteric site on the α7 nicotinic-receptor, sequence (Q05941 23-502): as above

## COc1ccc2c3c1O[C@H]1C[C@@H](O)C=C[C@@]31CCN(C)C2 [Galanthamine]
[1]; 100 nM competitor, Table 2, N = 6
  % [3H] Ivermectin binding (Mean ± SEM): 100.00 ± 11.48%
[1]; 200 nM competitor, Table 2
  % [3H] Ivermectin binding (Mean ± SEM): 97.86 ± 1.40%
[1]; 500 nM competitor, Table 2
  % [3H] Ivermectin binding (Mean ± SEM): 90.96 ± 1.87%
[1]; 700 nM competitor, Table 2
  % [3H] Ivermectin binding (Mean ± SEM): 69.68 ± 9.87%
[1]; 1 μM competitor, Table 2
  % [3H] Ivermectin binding (Mean ± SEM): 67.17 ± 6.64%
[1]; 2 μM competitor, Table 2
  % [3H] Ivermectin binding (Mean ± SEM): 66.32 ± 4.29%
PC12 cells; 'high doses'
  dose that blocks β-Amyloid (Table 3 feature): doses (0.1 μM)
PC12 cells; PC12, FIG. 8
  minimum effective concentration against β-Amyloid (10 μM) on cell viability: 100 nM
[2]
  binding affinity for the allosteric site on the α7 nicotinic-receptor: low affinity
[2]; listed as galanthamine
  binding affinity for the allosteric site on the α7 nicotinic-receptor: 10 µM
[2]; ✓ = Dream Drug feature 'Nanomolar affinity'
  affinity (Table 3 feature): Micromolar affinity
[3]
  bioavailability periphery (Table 3 feature): High bioavailability

## AEFHRWSSYMVHWK [T14]
[1]; 1 nM competitor, Table 1
  % [3H] Ivermectin binding (Mean ± SEM): 100 ± 9.91%
[1]; 10 nM competitor, Table 1
  % [3H] Ivermectin binding (Mean ± SEM): 90.92 ± 2.38%
[1]; 100 nM competitor, Table 1
  % [3H] Ivermectin binding (Mean ± SEM): 88.92 ± 3.82%
[1]; 1 μM competitor, Table 1
  % [3H] Ivermectin binding (Mean ± SEM): 85.17 ± 3.03%
[1]; 5 μM competitor, Table 1
  % [3H] Ivermectin binding (Mean ± SEM): 85.36 ± 3.96%
[4]
  viability at 10 µM: 83 ± 5.38%
[2]
  binding affinity for the allosteric site on the α7 nicotinic-receptor: 0.005 µM
